Laboratory results reported in the supplement of paper PMC3770661.
Where a name gives a salt, the structure may show the parent alone.

Tested on: HepG2 (L1.3 5'UTR promoter firefly luciferase reporter)
Test: L1 promoter activity (FLuc/RLuc) relative to DMSO vehicle control (% of control); higher = stronger L1 promoter activation
Procedure: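 HepG2 cells in 96-well plates were cotransfected with pGL4.11-L1.3 5'UTR (firefly luciferase driven by the human L1.3 5'UTR promoter) and pGL4.74 (HSV-TK Renilla luciferase internal control), then treated with compound for 6 or 24 h. FLuc/RLuc ratio was normalised to the DMSO vehicle control (% of control); concentrations where RLuc fell below 50% of control were excluded (N.D.). Mean of at least two independent experiments in duplicate or quadruplicate.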

CC(=O)Oc1ccccc1C(=O)O [Acetylsalicylic acid]
Settings | L1 promoter activity
concentration (uM unless unit written): 1, treatment time: 6 h | 103
concentration (uM unless unit written): 1, treatment time: 24 h | 98.7
concentration (uM unless unit written): 3, treatment time: 6 h | 115
concentration (uM unless unit written): 3, treatment time: 24 h | 88.3
concentration (uM unless unit written): 10, treatment time: 6 h | 107
concentration (uM unless unit written): 10, treatment time: 24 h | 105
concentration (uM unless unit written): 50, treatment time: 6 h | 106
concentration (uM unless unit written): 50, treatment time: 24 h | 98.2
concentration (uM unless unit written): 100, treatment time: 6 h | 123
concentration (uM unless unit written): 250, treatment time: 6 h | 112
concentration (uM unless unit written): 250, treatment time: 24 h | 105
concentration (uM unless unit written): 500, treatment time: 6 h | 114
concentration (uM unless unit written): 500, treatment time: 24 h | 86
concentration (uM unless unit written): 1000, treatment time: 6 h | 107
concentration (uM unless unit written): 1000, treatment time: 24 h | 91.3
concentration (uM unless unit written): 2000, treatment time: 6 h | 95.4
concentration (uM unless unit written): 2000, treatment time: 24 h | 67.7
concentration (uM unless unit written): 3000, treatment time: 6 h | 105
concentration (uM unless unit written): 3000, treatment time: 24 h | 53.3
concentration (uM unless unit written): 5000, treatment time: 6 h | 111
concentration (uM unless unit written): 5000, treatment time: 24 h | 40.8

CC(=O)CC(c1ccccc1)c1c(O)c2ccccc2oc1=O (stereo unspecified) [Warfarin]
Settings | L1 promoter activity
concentration (uM unless unit written): 25, treatment time: 6 h | 98.9
concentration (uM unless unit written): 25, treatment time: 24 h | 85
concentration (uM unless unit written): 50, treatment time: 6 h | 89.5
concentration (uM unless unit written): 50, treatment time: 24 h | 85.8
concentration (uM unless unit written): 100, treatment time: 6 h | 91.7
concentration (uM unless unit written): 100, treatment time: 24 h | 74.2
concentration (uM unless unit written): 500, treatment time: 6 h | 90.8
concentration (uM unless unit written): 500, treatment time: 24 h | 64.1

O=C(O)CC[N+](=O)[O-] [3-Nitropropionic acid]
Settings | L1 promoter activity
concentration (uM unless unit written): 125, treatment time: 6 h | 114
concentration (uM unless unit written): 125, treatment time: 24 h | 95.1
concentration (uM unless unit written): 250, treatment time: 6 h | 112
concentration (uM unless unit written): 250, treatment time: 24 h | 94.2
concentration (uM unless unit written): 500, treatment time: 6 h | 119
concentration (uM unless unit written): 500, treatment time: 24 h | 80.7

CCC(C)(C)C(=O)O[C@H]1C[C@@H](C)C=C2C=C[C@H](C)[C@H](CC[C@@H]3C[C@@H](O)CC(=O)O3)[C@H]21 [Simvastatin]
Settings | L1 promoter activity
concentration (uM unless unit written): 1, treatment time: 6 h | 94.1
concentration (uM unless unit written): 1, treatment time: 24 h | 100
concentration (uM unless unit written): 3, treatment time: 6 h | 93.1
concentration (uM unless unit written): 3, treatment time: 24 h | 117
concentration (uM unless unit written): 6, treatment time: 6 h | 108
concentration (uM unless unit written): 6, treatment time: 24 h | 107

CCCCc1nc(Cl)c(CO)n1Cc1ccc(-c2ccccc2-c2nnn[nH]2)cc1 [Losartan]
Settings | L1 promoter activity
concentration (uM unless unit written): 15.625, treatment time: 6 h | 93.6
concentration (uM unless unit written): 15.625, treatment time: 24 h | 92.6
concentration (uM unless unit written): 31.25, treatment time: 6 h | 106
concentration (uM unless unit written): 31.25, treatment time: 24 h | 102
concentration (uM unless unit written): 62.5, treatment time: 6 h | 109
concentration (uM unless unit written): 62.5, treatment time: 24 h | 98.6
concentration (uM unless unit written): 125, treatment time: 6 h | 101
concentration (uM unless unit written): 125, treatment time: 24 h | 95.1

CN(Cc1cnc2nc(N)nc(N)c2n1)c1ccc(C(=O)N[C@@H](CCC(=O)O)C(=O)O)cc1 [Methotrexate]
Settings | L1 promoter activity
concentration (uM unless unit written): 10, treatment time: 6 h | 86.8
concentration (uM unless unit written): 10, treatment time: 24 h | 112
concentration (uM unless unit written): 100, treatment time: 6 h | 93.4
concentration (uM unless unit written): 100, treatment time: 24 h | 108
concentration (uM unless unit written): 200, treatment time: 6 h | 93.6
concentration (uM unless unit written): 200, treatment time: 24 h | 142

O=C(O)c1cc(-c2ccc(F)cc2F)ccc1O [Diflunisal]
Settings | L1 promoter activity
concentration (uM unless unit written): 62.5, treatment time: 6 h | 148
concentration (uM unless unit written): 62.5, treatment time: 24 h | 117
concentration (uM unless unit written): 125, treatment time: 6 h | 136
concentration (uM unless unit written): 125, treatment time: 24 h | 156
concentration (uM unless unit written): 250, treatment time: 6 h | 159

COc1ccc2c(c1OC)C(=O)OC2C1c2c(cc3c(c2OC)OCO3)CCN1C [(S,R)-Noscapine]
Settings | L1 promoter activity
concentration (uM unless unit written): 125, treatment time: 6 h | 85.3
concentration (uM unless unit written): 125, treatment time: 24 h | 40.8
concentration (uM unless unit written): 250, treatment time: 6 h | 80.1
concentration (uM unless unit written): 250, treatment time: 24 h | 33.3
concentration (uM unless unit written): 500, treatment time: 6 h | 68.2
concentration (uM unless unit written): 500, treatment time: 24 h | 30.4

NC1=NCC2c3ccccc3Cc3ccccc3N12 (stereo unspecified) [Epinastine hydrochloride]
Settings | L1 promoter activity
concentration (uM unless unit written): 100, treatment time: 6 h | 93.6
concentration (uM unless unit written): 100, treatment time: 24 h | 85.9
concentration (uM unless unit written): 200, treatment time: 6 h | 77.8
concentration (uM unless unit written): 500, treatment time: 6 h | 27.1

CC1=C(CC(=O)O)c2cc(F)ccc2/C1=C\c1ccc([S+](C)[O-])cc1 (stereo unspecified) [Sulindac]
Settings | L1 promoter activity
concentration (uM unless unit written): 250, treatment time: 6 h | 218
